Experiments:
Cytochrome P450 1A2 = target: T1, Cytochrome P450 1A2 (Homo sapiens, UniProt P05177)
T1 sequence (P05177 whole entry): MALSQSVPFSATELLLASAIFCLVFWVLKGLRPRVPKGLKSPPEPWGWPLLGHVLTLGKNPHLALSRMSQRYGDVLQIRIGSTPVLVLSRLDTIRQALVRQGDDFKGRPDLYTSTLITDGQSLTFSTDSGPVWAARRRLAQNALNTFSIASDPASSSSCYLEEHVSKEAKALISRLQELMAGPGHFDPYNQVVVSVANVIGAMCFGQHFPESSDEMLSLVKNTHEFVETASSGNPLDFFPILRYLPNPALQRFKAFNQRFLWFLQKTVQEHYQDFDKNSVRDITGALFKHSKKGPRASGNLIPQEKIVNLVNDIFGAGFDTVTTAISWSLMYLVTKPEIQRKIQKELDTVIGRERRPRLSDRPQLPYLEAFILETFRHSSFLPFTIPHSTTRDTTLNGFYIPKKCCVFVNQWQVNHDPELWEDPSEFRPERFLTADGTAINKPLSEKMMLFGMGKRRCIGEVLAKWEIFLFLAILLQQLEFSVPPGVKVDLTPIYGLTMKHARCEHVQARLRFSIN
Description: Drug metabolism assessed as CYP1A2 (unknown origin)-mediated metabolite formation

[1] = target: T2, UDP-glucuronosyltransferase 1A10 (Homo sapiens, UniProt Q9HAW8); experiment: Drug metabolism assessed as UGT1A10 (unknown origin)-mediated metabolite formation; assay type: ADME
T2 sequence (Q9HAW8 whole entry): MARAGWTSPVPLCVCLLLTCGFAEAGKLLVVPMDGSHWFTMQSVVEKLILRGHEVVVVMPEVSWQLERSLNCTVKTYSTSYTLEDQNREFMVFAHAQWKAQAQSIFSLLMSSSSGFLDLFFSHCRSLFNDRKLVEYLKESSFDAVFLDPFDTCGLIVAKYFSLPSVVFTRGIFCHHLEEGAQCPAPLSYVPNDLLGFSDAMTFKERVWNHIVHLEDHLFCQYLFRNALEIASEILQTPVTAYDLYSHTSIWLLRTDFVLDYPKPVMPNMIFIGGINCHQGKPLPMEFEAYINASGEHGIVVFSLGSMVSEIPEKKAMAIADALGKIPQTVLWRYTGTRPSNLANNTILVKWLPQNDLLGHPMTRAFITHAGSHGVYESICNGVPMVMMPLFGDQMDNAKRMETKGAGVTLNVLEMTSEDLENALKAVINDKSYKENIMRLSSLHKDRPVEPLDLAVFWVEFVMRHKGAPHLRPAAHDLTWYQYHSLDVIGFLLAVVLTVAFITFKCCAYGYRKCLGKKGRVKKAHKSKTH

[2] = target: T3, UDP-glucuronosyltransferase 2B15 (Homo sapiens, UniProt P54855); experiment: Drug metabolism assessed as UGT2B15 (unknown origin)-mediated metabolite formation; assay type: ADME
T3 sequence (P54855 whole entry): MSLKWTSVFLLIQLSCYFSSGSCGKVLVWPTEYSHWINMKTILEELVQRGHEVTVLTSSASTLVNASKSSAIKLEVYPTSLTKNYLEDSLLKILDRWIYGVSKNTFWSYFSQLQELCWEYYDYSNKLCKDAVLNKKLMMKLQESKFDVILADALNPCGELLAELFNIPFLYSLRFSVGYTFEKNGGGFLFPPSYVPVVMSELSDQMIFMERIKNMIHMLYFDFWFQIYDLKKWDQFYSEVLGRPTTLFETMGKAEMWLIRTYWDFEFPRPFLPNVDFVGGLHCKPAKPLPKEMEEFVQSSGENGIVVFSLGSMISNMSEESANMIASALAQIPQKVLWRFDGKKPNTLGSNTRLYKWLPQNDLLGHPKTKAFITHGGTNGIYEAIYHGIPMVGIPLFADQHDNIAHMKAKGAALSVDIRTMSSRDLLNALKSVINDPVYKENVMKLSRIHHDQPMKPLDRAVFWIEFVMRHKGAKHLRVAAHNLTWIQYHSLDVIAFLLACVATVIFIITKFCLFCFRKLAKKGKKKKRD

[3] = target: T4, UDP-glucuronosyltransferase 2B7 (Homo sapiens, UniProt P16662); experiment: Drug metabolism assessed as UGT2B7 (unknown origin)-mediated metabolite formation; assay type: ADME
T4 sequence (P16662 whole entry): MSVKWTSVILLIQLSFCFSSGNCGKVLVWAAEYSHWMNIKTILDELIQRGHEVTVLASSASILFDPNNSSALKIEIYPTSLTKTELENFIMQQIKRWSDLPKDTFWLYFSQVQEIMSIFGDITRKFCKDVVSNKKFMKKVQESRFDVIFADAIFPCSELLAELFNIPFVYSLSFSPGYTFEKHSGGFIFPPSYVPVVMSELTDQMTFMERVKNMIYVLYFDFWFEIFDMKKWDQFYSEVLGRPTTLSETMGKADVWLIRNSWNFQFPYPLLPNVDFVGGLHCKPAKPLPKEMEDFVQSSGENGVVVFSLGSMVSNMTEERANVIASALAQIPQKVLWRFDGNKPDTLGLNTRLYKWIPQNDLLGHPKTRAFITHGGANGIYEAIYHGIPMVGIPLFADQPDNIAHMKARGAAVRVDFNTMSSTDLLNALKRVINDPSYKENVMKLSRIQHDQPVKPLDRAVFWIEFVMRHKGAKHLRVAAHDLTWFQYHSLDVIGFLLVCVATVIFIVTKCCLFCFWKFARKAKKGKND

Cytochrome P450 2C19 = Cytochrome P450 2C19 (Homo sapiens, UniProt P33261)
Cytochrome P450 2C19, sequence (P33261 whole entry): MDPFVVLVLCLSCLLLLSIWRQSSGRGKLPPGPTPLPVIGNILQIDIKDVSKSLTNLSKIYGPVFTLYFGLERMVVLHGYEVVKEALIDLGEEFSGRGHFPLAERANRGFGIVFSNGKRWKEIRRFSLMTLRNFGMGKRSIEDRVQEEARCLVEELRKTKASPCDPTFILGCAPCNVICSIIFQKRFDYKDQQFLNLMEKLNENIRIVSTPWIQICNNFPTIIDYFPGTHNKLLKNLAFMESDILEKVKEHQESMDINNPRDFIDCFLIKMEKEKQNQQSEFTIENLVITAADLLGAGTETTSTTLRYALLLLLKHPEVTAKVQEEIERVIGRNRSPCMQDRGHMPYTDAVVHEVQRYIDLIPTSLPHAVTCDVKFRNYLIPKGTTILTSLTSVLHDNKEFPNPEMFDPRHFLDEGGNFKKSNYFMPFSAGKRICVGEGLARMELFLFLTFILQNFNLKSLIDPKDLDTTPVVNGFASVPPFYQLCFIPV
Description: Drug metabolism assessed as CYP2C19 (unknown origin)-mediated metabolite formation

Cytochrome P450 2C9 = Cytochrome P450 2C9 (Homo sapiens, UniProt P11712)
Cytochrome P450 2C9, sequence (P11712 whole entry): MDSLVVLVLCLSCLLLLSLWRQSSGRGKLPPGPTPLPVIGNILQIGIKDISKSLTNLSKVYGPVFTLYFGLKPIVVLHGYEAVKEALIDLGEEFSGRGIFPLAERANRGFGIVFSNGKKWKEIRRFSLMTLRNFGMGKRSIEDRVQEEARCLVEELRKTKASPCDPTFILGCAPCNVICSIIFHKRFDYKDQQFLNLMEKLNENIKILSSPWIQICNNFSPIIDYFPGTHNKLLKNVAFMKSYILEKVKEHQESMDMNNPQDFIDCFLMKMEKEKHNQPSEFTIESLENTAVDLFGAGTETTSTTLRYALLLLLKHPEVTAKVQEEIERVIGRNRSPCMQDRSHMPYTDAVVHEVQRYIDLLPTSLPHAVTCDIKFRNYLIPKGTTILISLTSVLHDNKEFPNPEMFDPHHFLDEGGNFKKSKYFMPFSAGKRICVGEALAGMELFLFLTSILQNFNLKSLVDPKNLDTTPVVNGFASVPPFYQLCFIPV
Description: Drug metabolism assessed as CYP2C9 (unknown origin)-mediated metabolite formation

[4] = target: T5, UDP-glucuronosyltransferase 1A6 (Homo sapiens, UniProt P19224); experiment: Drug metabolism assessed as UGT1A6 (unknown origin)-mediated metabolite formation; assay type: ADME
T5 sequence (P19224 whole entry): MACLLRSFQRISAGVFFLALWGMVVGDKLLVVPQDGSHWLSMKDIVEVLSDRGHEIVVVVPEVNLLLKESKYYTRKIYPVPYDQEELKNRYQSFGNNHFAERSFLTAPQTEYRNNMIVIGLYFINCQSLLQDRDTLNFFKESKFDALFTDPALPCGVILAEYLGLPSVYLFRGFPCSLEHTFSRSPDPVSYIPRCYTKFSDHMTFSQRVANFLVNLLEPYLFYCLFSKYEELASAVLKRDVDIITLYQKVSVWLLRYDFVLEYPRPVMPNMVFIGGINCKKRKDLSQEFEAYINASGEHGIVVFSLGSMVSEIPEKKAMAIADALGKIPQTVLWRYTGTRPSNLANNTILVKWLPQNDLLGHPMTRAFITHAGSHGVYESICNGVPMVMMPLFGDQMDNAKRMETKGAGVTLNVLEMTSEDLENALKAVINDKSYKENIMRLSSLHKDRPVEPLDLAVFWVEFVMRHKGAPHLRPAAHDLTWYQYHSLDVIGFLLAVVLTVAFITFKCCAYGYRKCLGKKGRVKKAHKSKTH

Cytochrome P450 2D6 = Cytochrome P450 2D6 (Homo sapiens, UniProt P10635)
Cytochrome P450 2D6, sequence (P10635 whole entry): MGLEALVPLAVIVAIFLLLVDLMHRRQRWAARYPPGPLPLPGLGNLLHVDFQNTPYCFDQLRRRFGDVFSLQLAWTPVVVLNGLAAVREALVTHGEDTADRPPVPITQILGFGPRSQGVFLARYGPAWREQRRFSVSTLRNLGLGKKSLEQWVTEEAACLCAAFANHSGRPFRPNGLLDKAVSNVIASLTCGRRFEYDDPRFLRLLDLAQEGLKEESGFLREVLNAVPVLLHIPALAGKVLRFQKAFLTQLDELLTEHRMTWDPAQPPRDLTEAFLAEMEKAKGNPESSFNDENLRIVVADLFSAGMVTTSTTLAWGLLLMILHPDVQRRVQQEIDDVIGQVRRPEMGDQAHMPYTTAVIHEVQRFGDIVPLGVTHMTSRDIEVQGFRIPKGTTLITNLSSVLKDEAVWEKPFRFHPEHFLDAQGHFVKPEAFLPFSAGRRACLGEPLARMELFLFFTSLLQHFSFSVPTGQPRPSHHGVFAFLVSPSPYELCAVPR
Description: Drug metabolism assessed as CYP2D6 (unknown origin)-mediated metabolite formation

Cytochrome P450 3A4 = Cytochrome P450 3A4 (Homo sapiens, UniProt P08684)
Cytochrome P450 3A4, sequence (P08684 whole entry): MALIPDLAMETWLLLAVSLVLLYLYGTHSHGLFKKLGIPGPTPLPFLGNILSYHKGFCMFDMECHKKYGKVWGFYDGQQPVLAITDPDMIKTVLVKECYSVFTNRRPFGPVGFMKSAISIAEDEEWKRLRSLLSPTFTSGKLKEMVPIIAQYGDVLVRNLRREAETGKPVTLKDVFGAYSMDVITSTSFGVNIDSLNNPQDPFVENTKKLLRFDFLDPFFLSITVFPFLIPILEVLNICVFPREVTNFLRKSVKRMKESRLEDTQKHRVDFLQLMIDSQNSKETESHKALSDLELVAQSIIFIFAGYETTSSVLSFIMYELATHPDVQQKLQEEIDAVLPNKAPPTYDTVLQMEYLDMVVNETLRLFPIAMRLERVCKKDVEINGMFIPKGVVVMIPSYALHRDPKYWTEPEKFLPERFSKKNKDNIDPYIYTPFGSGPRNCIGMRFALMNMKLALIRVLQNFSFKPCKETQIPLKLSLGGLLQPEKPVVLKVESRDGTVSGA
Description: Drug metabolism assessed as CYP3A4 (unknown origin)-mediated metabolite formation

Row | Drug metabolism (Cytochrome P450 1A2) | Drug metabolism [1] | Drug metabolism [2] | Drug metabolism [3] | Drug metabolism (Cytochrome P450 2C19) | Drug metabolism (Cytochrome P450 2C9) | Drug metabolism [4] | Drug metabolism (Cytochrome P450 2D6) | Drug metabolism (Cytochrome P450 3A4) | Compound
1 | Metabolite_Notdetected | Metabolite_Notdetected | Metabolite_Notdetected | Metabolite_Detected | Metabolite_Notdetected | Metabolite_Detected | Metabolite_Notdetected | Metabolite_Notdetected | Metabolite_Notdetected | O=C(O)Cc1ccccc1Nc1c(Cl)cccc1Cl [DICLOFENAC]
2 | Metabolite_Detected | Metabolite_Notdetected | Metabolite_Notdetected | Metabolite_Notdetected | Metabolite_Notdetected | Metabolite_Notdetected | Metabolite_Notdetected | Metabolite_Notdetected | Metabolite_Notdetected | CCOCc1cn(-c2ccc(Cl)cc2)nn1
3 | Metabolite_Notdetected | Metabolite_Notdetected | Metabolite_Notdetected | Metabolite_Detected | Metabolite_Notdetected | Metabolite_Detected | Metabolite_Detected | Metabolite_Notdetected | Metabolite_Notdetected | CC(C)Cc1ccc(C(C)C(=O)O)cc1 (stereo unspecified) [IBUPROFEN]
4 | – | Metabolite_Notdetected | Metabolite_Notdetected | Metabolite_Detected | – | – | Metabolite_Detected | – | – | COc1ccc2cc([C@H](C)C(=O)O)ccc2c1 [NAPROXEN]
